Test results published in patent publication US20250295617A1, “METABOLITES FOR TREATMENT AND PREVENTION OF AUTOIMMUNE DISEASE” (MONASH UNIVERSITY, priority 2016, published 2025).

Key:
pancreatic islets = experiment: Insulitis scoring of pancreatic islets; assay type: in vivo, mouse; conditions: 10 weeks of age, 5 weeks after starting acetate treatment
Source text: Pancreatic tissue was processed and stained using standard procedures. For insulitis scoring, pancreata sections were taken at 3 […] (100 μm apart). At least 100 islets were scored from 5 to 15 mice. Islets were graded according to the following system: Grade 0—no indication of insulitis, Grade 1—<25% infiltration, Grade 2—25-50% infiltration, Grade 3—50-75% infiltration, and Grade 4—>75% infiltration.

female NOD mice = conditions: acetate in drinking water from 5 weeks of age
Method: To standardise microbiota, prior to beginning diets mice from multiple litters were mixed and randomly allocated to groups. The purified diets used were based on a balanced modification of the AIN93-G diet as described previously (Bajka et al., 2006). Mice were fed for 3-5 weeks starting at 3, 5 or 10 weeks of age. SCFAs in faeces, blood and caecal content were analysed as previously described in (Bajka et al., 2006). Diabetes was monitored as previously described (Mariño et al., 2009).
To determine whether oral administration of acetate (to increase its concentration in the circulation) could modulate disease progression, acetate was added to the drinking water of NOD female mice.

In the case of `CC(=O)[O-].[Na+]` [acetate, sodium acetate], the “insulitis (islet infiltration)” value (pancreatic islets) is reported as “more pancreatic islets without immune cell infiltration, and fewer islets with high-grade infiltration”, the development of diabetes (female NOD mice; vs controls) is reported as “significantly delayed” and the T1D incidence (female NOD mice; at age 30 weeks) is reported as 40%.
